Experimental data as given in publication PMC2778288 (Journal of medicinal chemistry, 2008).

tested on: primary normal human bladder epithelial cells; experiment: not given; conditions: biological antiproliferation assays; cited from earlier work

Question: With TVPAAVVVA [nonglycosylated nonapeptide] as the substance, how does the “antiproliferative activity (previously determined, in words)” value read?
Answer: The value was “completely inactive”.

Question: With “Neu5Acα2-3Galβ1-3GalNAcα-O-TVPAAVVVA [APF]” as the substance, how does the “antiproliferative activity (previously determined, in words)” value read?
Answer: Its value is “essentially equipotent”.

Question: Which “antiproliferative activity (previously determined, in words)” value does the source give for Galβ1-3GalNAcβ-O-TVPAAVVVA here?
Answer: The value was “completely inactive”.

Question: For Neu5Acα2-3Galβ1-4GlcNAcαO-SLPAAVVVA, which “antiproliferative activity (previously determined, in words)” value is on record?
Answer: Its value is “essentially equipotent”.

Question: With Neu5Acα2-3Galβ1-4GlcNAcα-O-TVPAAVVVA as the substance, how does the “antiproliferative activity (previously determined, in words)” value read?
Answer: Its value is “essentially equipotent”.

Question: With Galβ1-4GlcNAcα-O-SLPAAVVVA as the substance, how does the “antiproliferative activity (previously determined, in words)” value read?
Answer: Its value is “essentially equipotent”.

tested on: primary normal human bladder epithelial cells; experiment: 3H-thymidine incorporation; format: cell-based; conditions: not given

Question: For “Galβ1-3GalNAcα-O-TV-Hyp-AAVVVA [compound 12]”, which “loss of potency/activity compared to parent as-APF 1 (orders of magnitude)” value is on record?
Answer: Its value is 2–3 orders of magnitude.

Question: With “Galβ1-3GalNAcα-O-TV-Pip-AAVVVA [compound 15]” as the substance, how does the “antiproliferative activity relative to as-APF 1 (in words)” value read?
Answer: Its value is “complete retention”.

Question: Which “loss of potency/activity compared to parent as-APF 1 (orders of magnitude)” value does the source give for Galβ1-3GalNAcα-O-SLPAAVVVA [compound 2] here?
Answer: Its value is 2 orders of magnitude.

Question: Which “antiproliferative activity relative to as-APF 1 (in words)” value does the source give for “Galβ1-3GalNAcα-O-TVPAAAAAA [compound 25]” here?
Answer: Its value is “decreased as-APF activity”.

Question: Which “antiproliferative activity relative to as-APF 1 (in words)” value does the source give for “Galβ1-3GalNAcα-O-TVPAAVVVAK(Ac) [compound 35]” here?
Answer: Its value is “some of which was restored”.

Question: Which “antiproliferative activity relative to as-APF 1 (in words)” value does the source give for “Galβ1-3GalNAcα-O-TVPAAVVVAK(dansyl) [compound 31]” here?
Answer: Its value is “no loss of activity”.

Question: With “Galβ1-3GalNAcα-O-TVPAAVVVAK [compound 33]” as the substance, how does the “antiproliferative activity relative to as-APF 1 (in words)” value read?
Answer: Its value is “complete loss of activity”.

Question: Which “antiproliferative activity relative to as-APF 1 (in words)” value does the source give for “Galβ1-3GalNAcα-O-TLS(^ΨMe,Mepro)-AAVVVA [compound 9]” here?
Answer: Its value is “completely abolished activity”.

Question: For Galβ1-3GalNAcα-O-TLPAAVVVA [compound 4], which “antiproliferative activity relative to as-APF 1 (in words)” value is on record?
Answer: Its value is “inactivation”.

Question: With Galβ1-3GalNAcα-O-SVPAAVVVA [compound 3] as the substance, how does the “loss of potency/activity compared to parent as-APF 1 (orders of magnitude)” value read?
Answer: The value was 4 orders of magnitude.

Question: For “Galβ1-3GalNAcα-O-TVPAAGGGA [compound 26]”, which “antiproliferative activity relative to as-APF 1 (in words)” value is on record?
Answer: The value was “complete inactivation”.

Question: Which “antiproliferative activity relative to as-APF 1 (in words)” value does the source give for “Galβ1-3GalNAcα-O-TV-Aze-AAVVVA [compound 10]” here?
Answer: The value was “completely abolished activity”.

tested on: normal bladder epithelial as well as cells derived from urothelial carcinomas; experiment: not given; conditions: native and synthetic APF; cited from earlier work

Question: With “Neu5Acα2-3Galβ1-3GalNAcα-O-TVPAAVVVA [APF]” as the substance, how does the concentrations inhibiting proliferation read?
Answer: Its concentrations inhibiting proliferation is “picomolar to low nanomolar”.
